Laboratory results taken from patent US20230321030A1, “KAEMPFEROL AGLYCONE-CONTAINING EXTRACT” (OTSUKA PHARMACEUTICAL CO., LTD., priority 2020, published 2023).

Columns and labels:
Assay type in all cases: in vivo
radish sprouts [1] = experiment: L-tyrosine or L-phenylalanine addition effect 2, radish sprouts at 21 or 17.5 vol% oxygen; conditions: 25 or 50 mg/L, 7 days; for kaempferol content: in every oxygen concentration (21 or 17.5 vol%); for rate of increase in the kaempferol content: low-oxygen concentration (17.5 vol%)
Protocol: (§1) The amount of kaempferol and quercetin was measured after all of the glycosides of kaempferol and quercetin were hydrolyzed and converted into aglycones. The actual procedure was as follows. After each sample was milled, 2.0 g of the milled product was weighed. After 40 mL of 70% ethanol was added, the sample was suspended with a Polytron homogenizer at room temperature at 20.000 rpm for 1 minute. 1 mL of the suspension was dispensed and weighed into a glass test tube, and 1 mL of 2 N hydrochloric acid was added. After being mixed with a vortex, the mixture was heated at 100° C. for 30 minutes with a heat block. After heating was completed, the resulting product was cooled with ice for at least 5 minutes. After cooling, 5 mL of hexane was added, and the mixture was shaken horizontally 20 times. After centrifugation at 3.000 rpm for 5 minutes at 4° C. with a cooled centrifuge, the upper layer was discarded. 5 mL of ethyl acetate was added, and the mixture was shaken horizontally with a shaker at room temperature at 250 rpm for 10 minutes. After centrifugation with a large cooled centrifuge at 4° C. at 3.000 rpm for 5 minutes, the upper layer was collected in a glass test tube for drying. 5 mL of ethyl acetate was added again to the lower layer, and the mixture was shaken horizontally with a shaker at room temperature at 250 rpm for 10 minutes. After centrifugation at 3.000 rpm at 4° C. for 5 minutes, the upper layer was collected in a glass test tube for drying. The collected upper layer was dried with nitrogen at 60° C. with a nitrogen spray dryer. After drying was complete, 1 mL of an aqueous solution of 70% ethanol was added, and the mixture was treated with an ultrasonic generator for 1 minute to dissolve it with a vortex. After being passed through a 0.45-µm filter, the solution was subjected to HPLC to perform KMP aglycone analysis, thereby determining the amount of KMP aglycones.
Aqueous solutions containing L-phenylalanine in a concentration of 25 or 50 mg/L, and aqueous solutions containing L-tyrosine in a concentration of 25 or 50 mg/L were prepared. As a test plant, radish sprouts were prepared. The test plant was given one of the aqueous solution in an amount of 10 ml/day for 7 days and grown in the dark in an oxygen concentration of 21 vol% or 17.5 vol%. After 7 days, the content of kaempferol and quercetin was measured in the same manner as in section B1-2 above.

radish sprouts [2] = experiment: L-tyrosine or L-phenylalanine addition effect 1, radish sprouts; conditions: for effect on the quercetin content / kaempferol content: 21 vol% oxygen; for kaempferol content: aqueous solution 25-400 mg/L, 10 ml/day for 7 days, dark
Protocol: as §1
(§2) Aqueous solutions containing L-phenylalanine in a concentration of 25, 50, 100, 200, or 400 mg/L, aqueous solutions containing L-tyrosine in a concentration of 25, 50, 100, 200, or 400 mg/L, and aqueous solutions containing both L-tyrosine and L-phenylalanine in a concentration of 25, 50, 100, 200, or 400 mg/L were prepared. As test plants, radish sprouts and broccoli sprouts were prepared. The test plants were given one of the aqueous solutions in an amount of 10 ml/day for 7 days and grown in the dark in an oxygen concentration of 21 vol%. After 7 days, the content of kaempferol and quercetin was measured for each test plant in the same manner as in section B1-2 above. […] Additionally, quercetin was not detected in broccoli sprouts regardless of the addition of L-tyrosine and L-phenylalanine.

broccoli sprouts = experiment: L-tyrosine or L-phenylalanine addition effect 1, broccoli sprouts; conditions: for kaempferol content: aqueous solution 25-400 mg/L, 10 ml/day for 7 days, dark; for kaempferol content / quercetin content: 21 vol% oxygen; for quercetin content: regardless of the addition
Protocol: as §1, §2

SMILES	effect on plant growth (total length and weight) (radish sprouts [1]; 21 or 17.5 vol% oxygen)	kaempferol content (radish sprouts [1])	rate of increase in the kaempferol content (radish sprouts [1])	effect on plant growth (total length and weight) (radish sprouts [2]; 25-400 mg/L, 7 days)	effect on the quercetin content (radish sprouts [2]; 25-400 mg/L, 7 days)	kaempferol content (radish sprouts [2])	effect on plant growth (total length and weight) (broccoli sprouts; 25-400 mg/L, 7 days)	kaempferol content (broccoli sprouts)	quercetin content (broccoli sprouts; 7 days)
N[C@@H](Cc1ccc(O)cc1)C(=O)O [L-tyrosine]	no clear effect	increased	significantly increased	no clear effect	no significant effect	increased	no clear effect	increased	not detected
N[C@@H](Cc1ccccc1)C(=O)O [L-phenylalanine]	–	increased	significantly increased	–	no significant effect	increased	–	increased	not detected
